Experiments:
[1] = tested on: MRSA ATCC33591; experiment: Neutropenic murine thigh infection model; type: in vivo, Balb/c mice; details: for bacterial load in thigh: 12 mg kg^−1 i.p. at 1 h and 13 h post-infection, 24 h, untreated 8 log CFU g^−1
Protocol: The in vitro activity, low toxicity, and stability in plasma and liver homogenate, supported the potential of VanQAmC10 as a candidate for the treatment of bacterial infections. The efficacy of VanQAmC10 (8) against MRSA was tested in a neutropenic mouse thigh infection model. Infection was established by injecting them with 5 × 10^5 CFU of MRSA in the thigh. 1 h and 13 h post-infection, mice were treated with 12 mg kg^−1 of vancomycin and VanQAmC10 administered intraperitoneally (Fig. 6B). The mice were sacrificed 24 h post-infection. […] In the untreated group, the bacterial load increased to 8 log CFU g^−1. […] However, treatment with VanQAmC10 reduced the bacterial load to 3.3 log CFU g^−1, which is a 1.5 log CFU g^−1 lower bacterial load than observed against vancomycin. […]
bacterial concentration was adjusted to ~ […] based on OD600. The process was repeated for 27 passages. The fold of MIC increased for test compounds were plotted against […]
Activity in blood plasma and liver homogenate
To examine the susceptibility of VanQAmC10 to serum proteases, the antibacterial activities was tested in the presence of 50% of plasma and liver homogenate. Briefly, 250 μL of VanQAmC10 was added into 250 μL of fresh human plasma and incubated at 37 °C. An aliquot of the samples 3 h and 24h post-incubation was diluted in 0.9% saline and the antibacterial activity (MIC) were determined against MRSA and VRE by following the same protocol as described above for the antibacterial assay.
The toxicity of the lead compound VanQAmC10 was tested in mice through various modes of administration and reported as the LD50 (LD = lethal dose). The LD50 is the dosage that kills 50% of the test population of mice. […]
The doses for administration, were given modified OECD guidelines. LD50 was determined using Spearman-Karber method. […]
Groups of four 6 to 8 week-old Balb/c specific-pathogen-free female mice were used (weight ~22 g) for the experiment. […] The bacterial titer was expressed as Log CFU/g of thigh weight and plotted in GraphPad Prism software. […]

[2] = tested on: B. subtilis; experiment: BacLight assay (pore formation assay); type: cell-based; details: treatment at PEC
Source text: To examine if the compounds form pores on the membrane, a mixture of the fluorescent dyes SYTO 9 and PI was used. While SYTO 9 penetrates both intact and permeabilized cells staining them green, PI is unable to cross the intact membrane and stains only permeabilized or dead cells red. Membrane-disrupting antibiotics such as nisin are known to form pores in the membrane is stained by both SYTO 9 and PI (Fig. 4D). […] Around 20% of the cells visualized post-treatment with both compounds were stained by PI and therefore permeabilized. […]
and the untreated control were carefully removed from the well, washed with 0.9 % saline, and placed on glass slides. The biofilms were then stained with 10 μL of SYTO9 (60μM) and imaged using a Zeiss 510 Meta confocal laser-scanning microscope. The orthogonal projections of the images were processed with LSM 5 Image examiner. […]
Overnight cultures of B. subtilis 168 were grown in 50 mL flasks in 5 mL BMM media. […] The MIC was determined as the lowest concentration at which no visible bacterial OD […]
Overnight cultures of B. subtilis 168 were grown in 50 mL flasks with 10 mL of media. […] The O.D. of the solutions are recorded every 30 minutes. […]
resuspended in prewarmed BMM media. […] The fluorescence in the GFP and Texas red channels was then observed under the microscope. […]

Row | Structure (SMILES) | bacterial load in thigh [1] [log CFU g^−1] | pore formation (co-staining SYTO 9 and PI) [2] | lower bacterial load than observed against vancomycin ([1]; 12 mg kg^−1 i.p. twice) [log CFU g^−1]
1 | CN[C@H](CC(C)C)C(=O)N[C@H]1C(=O)N[C@@H](CC(N)=O)C(=O)N[C@H]2C(=O)N[C@H]3C(=O)N[C@H](C(=O)N[C@H](C(=O)O)c4cc(O)cc(O)c4-c4cc3ccc4O)[C@H](O)c3ccc(c(Cl)c3)Oc3cc2cc(c3O[C@@H]2O[C@H](CO)[C@@H](O)[C@H](O)[C@H]2O[C@H]2C[C@](C)(N)[C@H](O)[C@H](C)O2)Oc2ccc(cc2Cl)[C@H]1O [Vancomycin, reference compound] | 4.8 | – | –
2 | CCCCCCCCCCNC(=O)C[N+](C)(C)CCCNC(=O)C1NC(=O)C2NC(=O)C(NC(=O)C3NC(=O)C(CC(N)=O)NC(=O)C(NC(=O)C(CC(C)C)NC)C(O)c4ccc(c(Cl)c4)Oc4cc3cc(c4OC3OC(CO)C(O)C(O)C3OC3CC(C)(N)C(O)C(C)O3)Oc3ccc(cc3Cl)C2O)c2ccc(O)c(c2)-c2c(O)cc(O)cc21 (centres unmarked) [VanQAmC10 (8)] | 3.3 | did not co-stain cells with both the dyes | 1.5
3 | CNC(CC(C)C)C(=O)NC1C(=O)NC(CC(N)=O)C(=O)NC2C(=O)NC3C(=O)NC(C(=O)NC(C(=O)NCCC[N+](C)(C)Cc4ccc(-c5ccccc5)cc4)c4cc(O)cc(O)c4-c4cc3ccc4O)C(O)c3ccc(c(Cl)c3)Oc3cc2cc(c3OC2OC(CO)C(O)C(O)C2OC2CC(C)(N)C(O)C(C)O2)Oc2ccc(cc2Cl)C1O (centres unmarked) [VanQbiph (4)] | – | did not co-stain cells with both the dyes | –

From publication PMC9977398, “Next-generation membrane-active glycopeptide antibiotics that also inhibit bacterial cell division” (Chemical Science, 2023)
